Patent US20100292335A1, “USE OF ORGANIC COMPOUNDS” (priority 2007, published 2010)

System: bradykinin peptides BK-(1-7), BK-(1-9)
Experiment: Bradykinin peptide levels in blood and tissues of non-diabetic and streptozotocin-diabetic (mRen-2)27 rats after 16 weeks aliskiren
Assay type: in vivo, transgenic (mRen-2)27 rats
Details: for Effect of aliskiren on BK-(1-7) level / Effect of aliskiren on BK-(1-9) level / Effect of aliskiren on BK-(1-7)/(1-9) ratio: 10 mg/kg/day 16 weeks, 10 mg/kg/day; for Heart BK-(1-7), Mean ± SEM / Heart BK-(1-7)/(1-9) ratio, Mean ± SEM / Heart BK-(1-9), Mean ± SEM: aliskiren 10 mg/kg/day 16 weeks
Experimental: As an example, diabetes is induced in 6 week old female heterozygous transgenic (mRen-2)27 rats by administration of 55 mg/kg streptozotocin diluted in […], pH 4.5 by tail vein injection. Non-diabetic rats are injected with citrate buffer alone [Campbell D J, Kelly D J, Wilkinson-Berka J L, Cooper M E, Skinner S L. Increased bradykinin and “normal” angiotensin peptide levels in diabetic Sprague-Dawley and transgenic (mRen-2)27 rats. Kidney Int 1999; 56:211-221.1. Diabetic and non-diabetic rats are randomized to receive either no drug or aliskiren (10 mg/kg/day by osmotic minipump) from 6-7 weeks of age for a duration of 16 weeks. The minipumps are changed every 2 weeks and the amount of aliskiren in the minipumps is adjusted according to the body weight of the rats. Diabetic rats are injected subcutaneously with 2-4 units insulin (Ultratard, Novo Nordisk, Denmark).every second day (3 times a week). If rats have continuously elevated blood glucose levels (>33.3 mmol/L) over a couple of weeks, they are injected with 3 units every day. When glucose levels decrease to 33.3 mmol/L they are administered 2-4 units insulin every second day. After 16 weeks drug treatment, rats are anesthetized with ketamine (75 mg/kg) and xylazine (10 mg/kg) in combination, and blood and tissue is collected for peptide assay. Peptides are measured as previously described [Lawrence A C, Evin G, Kladis A, Campbell D J. An alternative strategy for the radioimmunoassay of angiotensin peptides using amino-terminal-directed antisera: measurement of eight angiotensin peptides in human plasma. J Hypertens 1990; 8:715-724; Campbell D J, Lawrence A C, Towrie A, Kladis A, Valentijn A J. Differential regulation of angiotensin peptide levels in plasma and kidney of the rat. Hypertension 1991; 18:763-773; Campbell D J, Kladis A, Duncan A-M. Nephrectomy, converting enzyme inhibition and angiotensin peptides. Hypertension 1993; 22:513-522; Campbell D J, Kladis A, Duncan A-M. Bradykinin peptides in kidney, blood, and other tissues of the rat. Hypertension 1993; 21:155-165; Campbell D J, Kladis A, Duncan A-M. Effects of converting enzyme inhibitors on angiotensin and bradykinin peptides. Hypertension 1994; 23:439-449; Campbell D J, Rong P, Kladis A, Rees B, Skinner S L. Angiotensin and bradykinin peptides in the TGR(mRen-2)27 rat. Hypertension 1995; 25:1014-1020]. Only the left kidney is collected for peptide assay. The heart refers to the cardiac ventricles (both right and left ventricle). The Ang I levels in heart are below the limit of detection of the assay.
There are 4 groups of rats: • 1. Non-diabetic control. • 2. Non-diabetic administered aliskiren 10 mg/kg/day. • 3. Diabetic control. • 4. Diabetic administered aliskiren 10 mg/kg/day.

[1] = Heart, control rats, listed as Aliskiren
[2] = Heart, diabetic rats, listed as Aliskiren

COCCCOc1cc(C[C@@H](C[C@H](N)[C@@H](O)C[C@H](C(=O)NCC(C)(C)C(N)=O)C(C)C)C(C)C)ccc1OC [aliskiren, 2(S),4(S),5(S),7(S)-N-(3-amino-2,2-dimethyl-3-oxopropyl)-2,7-di(1-methylethyl)-4-hydroxy-5-amino-8-[4-methoxy-3-(3-methoxy-propoxy)phenyl]-octanamide]
Effect of aliskiren on BK-(1-7) level (Blood, control rats): does not affect | Effect of aliskiren on BK-(1-9) level (Blood, control rats): does not affect | Effect of aliskiren on BK-(1-7) level (Blood, diabetic rats): does not affect | Effect of aliskiren on BK-(1-7)/(1-9) ratio (Blood, diabetic rats): increase | Effect of aliskiren on BK-(1-9) level (Blood, diabetic rats): does not affect | Effect of aliskiren on BK-(1-7) level (Brain, control rats): does not affect | Effect of aliskiren on BK-(1-9) level (Brain, control rats): does not affect | Effect of aliskiren on BK-(1-7) level (Brain, diabetic rats): does not affect | Effect of aliskiren on BK-(1-9) level (Brain, diabetic rats): does not affect | Effect of aliskiren on BK-(1-7) level (Heart, control rats): increased | Effect of aliskiren on BK-(1-7)/(1-9) ratio (Heart, control rats): did not affect | Effect of aliskiren on BK-(1-9) level (Heart, control rats): increased | Effect of aliskiren on BK-(1-7) level [1]: increase | Effect of aliskiren on BK-(1-7)/(1-9) ratio [1]: no change | Effect of aliskiren on BK-(1-9) level [1]: increase | Heart BK-(1-7), Mean ± SEM (Heart, control rats): 19.2 ± 2.5 fmol/g | Heart BK-(1-7)/(1-9) ratio, Mean ± SEM (Heart, control rats): 1.88 ± 0.18 mol/mol | Heart BK-(1-9), Mean ± SEM (Heart, control rats): 10.6 ± 1.2 fmol/g | Effect of aliskiren on BK-(1-7) level (Heart, diabetic rats): increased | Effect of aliskiren on BK-(1-7)/(1-9) ratio (Heart, diabetic rats): did not affect | Effect of aliskiren on BK-(1-9) level (Heart, diabetic rats): increased | Effect of aliskiren on BK-(1-7) level [2]: increase | Effect of aliskiren on BK-(1-7)/(1-9) ratio [2]: no change | Effect of aliskiren on BK-(1-9) level [2]: increase | Heart BK-(1-7), Mean ± SEM (Heart, diabetic rats): 13.9 ± 1.5 fmol/g | Heart BK-(1-7)/(1-9) ratio, Mean ± SEM (Heart, diabetic rats): 2.47 ± 0.37 mol/mol | Heart BK-(1-9), Mean ± SEM (Heart, diabetic rats): 6.4 ± 0.7 fmol/g | Effect of aliskiren on BK-(1-7) level (Kidney, control rats): does not affect | Effect of aliskiren on BK-(1-9) level (Kidney, control rats): does not affect | Effect of aliskiren on BK-(1-7) level (Kidney, diabetic rats): does not affect | Effect of aliskiren on BK-(1-9) level (Kidney, diabetic rats): does not affect | Effect of aliskiren on BK-(1-7) level (Lung, control rats): does not affect | Effect of aliskiren on BK-(1-9) level (Lung, control rats): does not affect | Effect of aliskiren on BK-(1-7) level (Lung, diabetic rats): does not affect | Effect of aliskiren on BK-(1-9) level (Lung, diabetic rats): does not affect
